Drawing on ChEMBL document CHEMBL5291721, “A preclinical secondary pharmacology resource illuminates target-adverse drug reaction associations of marketed drugs” (Nat Commun, 2023), this text covers AC50 for seven compounds.

Some targets named below: Histamine H3 receptor (Homo sapiens, UniProt Q9Y5N1); D(3) dopamine receptor (Homo sapiens, UniProt P35462); Mu-type opioid receptor (Homo sapiens, UniProt P35372); D(1A) dopamine receptor (Homo sapiens, UniProt P21728).
For assay [1], the target named is T1, Thromboxane A2 receptor (Homo sapiens, UniProt P21731).
T1 sequence (P21731 whole entry): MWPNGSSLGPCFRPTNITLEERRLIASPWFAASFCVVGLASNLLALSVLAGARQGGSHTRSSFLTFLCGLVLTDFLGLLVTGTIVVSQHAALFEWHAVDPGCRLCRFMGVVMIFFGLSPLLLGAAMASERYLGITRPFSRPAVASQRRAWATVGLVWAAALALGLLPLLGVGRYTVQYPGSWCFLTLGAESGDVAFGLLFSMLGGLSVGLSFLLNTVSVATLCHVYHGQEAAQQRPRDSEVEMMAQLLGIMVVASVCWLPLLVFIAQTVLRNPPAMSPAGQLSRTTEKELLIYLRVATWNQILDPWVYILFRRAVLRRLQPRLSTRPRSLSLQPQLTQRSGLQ
Type of assay: functional, cell-based.

For assay [2], the target named is 5-hydroxytryptamine receptor 2B (Homo sapiens, UniProt P41595). The format is functional, cell-based.
Assay [3] has as its target Sodium-dependent dopamine transporter (Homo sapiens, UniProt Q01959).
Assay [4] has as its target T2, Prostaglandin G/H synthase 1 (Homo sapiens, UniProt P23219). The format is functional.
Assay [5] deals with T3, Muscarinic acetylcholine receptor M2 (Homo sapiens, UniProt P08172).
T3 sequence (P08172 whole entry): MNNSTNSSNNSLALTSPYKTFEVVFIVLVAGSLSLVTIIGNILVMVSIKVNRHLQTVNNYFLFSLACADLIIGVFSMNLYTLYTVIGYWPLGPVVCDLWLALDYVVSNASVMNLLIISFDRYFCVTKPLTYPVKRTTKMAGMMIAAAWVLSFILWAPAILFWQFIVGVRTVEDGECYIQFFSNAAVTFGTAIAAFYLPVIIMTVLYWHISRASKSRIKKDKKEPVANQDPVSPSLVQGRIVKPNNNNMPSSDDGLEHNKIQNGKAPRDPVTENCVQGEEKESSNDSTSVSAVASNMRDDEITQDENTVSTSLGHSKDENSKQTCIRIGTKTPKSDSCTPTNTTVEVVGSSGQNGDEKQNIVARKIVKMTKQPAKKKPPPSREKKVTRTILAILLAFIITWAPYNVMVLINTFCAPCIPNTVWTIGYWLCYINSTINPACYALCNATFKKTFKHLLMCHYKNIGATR

Assay [6] concerns the target T4, Alpha-2A adrenergic receptor (Homo sapiens, UniProt P08913).
T4 sequence (P08913 whole entry): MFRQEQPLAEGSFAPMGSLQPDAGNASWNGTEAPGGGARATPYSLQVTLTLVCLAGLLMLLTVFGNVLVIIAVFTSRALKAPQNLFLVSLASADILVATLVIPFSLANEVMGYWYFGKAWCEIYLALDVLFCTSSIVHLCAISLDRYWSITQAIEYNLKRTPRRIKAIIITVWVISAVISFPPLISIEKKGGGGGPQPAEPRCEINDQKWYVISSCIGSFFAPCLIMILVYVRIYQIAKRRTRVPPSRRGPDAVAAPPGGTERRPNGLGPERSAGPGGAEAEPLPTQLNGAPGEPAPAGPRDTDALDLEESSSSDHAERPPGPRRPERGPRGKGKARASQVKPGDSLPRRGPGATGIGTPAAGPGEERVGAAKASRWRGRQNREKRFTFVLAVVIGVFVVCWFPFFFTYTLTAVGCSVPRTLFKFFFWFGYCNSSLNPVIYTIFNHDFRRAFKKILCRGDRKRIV

The next assay has as its target Prothrombin (Homo sapiens, UniProt P00734). The format is functional.
A further assay has as its target Bile salt export pump (Homo sapiens, UniProt O95342). Type of assay: functional.
Assay [7] addresses 3',5'-cyclic-AMP phosphodiesterase 4A (Homo sapiens, UniProt P27815). The format is functional.
Assay [8] concerns the target T5, 5-hydroxytryptamine receptor 1A (Homo sapiens, UniProt P08908).
T5 sequence (P08908 whole entry): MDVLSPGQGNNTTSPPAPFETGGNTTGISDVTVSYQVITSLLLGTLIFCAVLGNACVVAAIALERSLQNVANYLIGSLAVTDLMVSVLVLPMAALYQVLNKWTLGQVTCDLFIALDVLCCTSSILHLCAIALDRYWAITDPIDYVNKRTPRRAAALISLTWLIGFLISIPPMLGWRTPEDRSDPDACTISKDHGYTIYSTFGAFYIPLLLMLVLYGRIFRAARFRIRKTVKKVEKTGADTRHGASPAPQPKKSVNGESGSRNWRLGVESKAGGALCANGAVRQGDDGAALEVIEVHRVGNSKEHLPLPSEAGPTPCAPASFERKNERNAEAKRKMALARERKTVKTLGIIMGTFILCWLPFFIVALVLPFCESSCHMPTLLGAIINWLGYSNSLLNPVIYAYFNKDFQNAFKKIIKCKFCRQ

The target of assay [9] is Voltage-gated inwardly rectifying potassium channel KCNH2 (Homo sapiens, UniProt Q12809). Type of assay: functional. Particulars: read-out: AC50.
Chain of Voltage-gated inwardly rectifying potassium channel KCNH2 (Q12809 whole entry): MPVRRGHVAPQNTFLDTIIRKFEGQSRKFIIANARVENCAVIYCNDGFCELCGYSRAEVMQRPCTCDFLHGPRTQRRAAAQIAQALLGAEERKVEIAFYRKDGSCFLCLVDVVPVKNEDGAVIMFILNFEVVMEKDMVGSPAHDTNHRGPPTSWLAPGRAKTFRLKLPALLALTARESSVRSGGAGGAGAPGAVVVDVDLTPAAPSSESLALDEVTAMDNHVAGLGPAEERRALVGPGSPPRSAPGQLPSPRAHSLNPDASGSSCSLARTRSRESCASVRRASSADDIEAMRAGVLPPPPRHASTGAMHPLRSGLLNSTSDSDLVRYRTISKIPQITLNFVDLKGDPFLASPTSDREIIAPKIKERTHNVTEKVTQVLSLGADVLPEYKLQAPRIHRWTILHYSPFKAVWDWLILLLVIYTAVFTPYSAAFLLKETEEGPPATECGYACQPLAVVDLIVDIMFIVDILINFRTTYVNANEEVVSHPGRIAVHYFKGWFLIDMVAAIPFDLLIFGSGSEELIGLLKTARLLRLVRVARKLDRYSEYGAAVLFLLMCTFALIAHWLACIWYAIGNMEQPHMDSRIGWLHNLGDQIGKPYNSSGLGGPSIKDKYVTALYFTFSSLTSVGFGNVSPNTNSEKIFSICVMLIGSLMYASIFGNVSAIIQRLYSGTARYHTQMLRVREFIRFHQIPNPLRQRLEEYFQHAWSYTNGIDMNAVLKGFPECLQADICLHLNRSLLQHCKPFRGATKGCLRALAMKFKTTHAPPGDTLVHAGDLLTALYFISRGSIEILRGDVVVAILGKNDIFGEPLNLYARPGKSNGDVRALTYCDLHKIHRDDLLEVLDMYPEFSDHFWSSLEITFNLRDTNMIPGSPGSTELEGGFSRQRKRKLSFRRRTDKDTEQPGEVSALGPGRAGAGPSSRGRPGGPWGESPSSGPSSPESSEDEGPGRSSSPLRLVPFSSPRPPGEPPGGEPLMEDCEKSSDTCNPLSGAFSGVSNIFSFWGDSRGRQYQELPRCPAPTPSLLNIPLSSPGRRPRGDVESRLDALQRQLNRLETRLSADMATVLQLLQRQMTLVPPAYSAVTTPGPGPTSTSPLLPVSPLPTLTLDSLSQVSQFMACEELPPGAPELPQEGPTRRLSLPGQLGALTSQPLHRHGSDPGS
Assay [10] has as its target cGMP-inhibited 3',5'-cyclic phosphodiesterase 3A (Homo sapiens, UniProt Q14432). The format is functional.
The target of assay [11] is T1, Thromboxane A2 receptor. The format is functional, cell-based. The source holds these as a separate data set.
For assay [12], the target named is Sodium-dependent noradrenaline transporter (Homo sapiens, UniProt P23975).
Chain of Sodium-dependent noradrenaline transporter (P23975 whole entry): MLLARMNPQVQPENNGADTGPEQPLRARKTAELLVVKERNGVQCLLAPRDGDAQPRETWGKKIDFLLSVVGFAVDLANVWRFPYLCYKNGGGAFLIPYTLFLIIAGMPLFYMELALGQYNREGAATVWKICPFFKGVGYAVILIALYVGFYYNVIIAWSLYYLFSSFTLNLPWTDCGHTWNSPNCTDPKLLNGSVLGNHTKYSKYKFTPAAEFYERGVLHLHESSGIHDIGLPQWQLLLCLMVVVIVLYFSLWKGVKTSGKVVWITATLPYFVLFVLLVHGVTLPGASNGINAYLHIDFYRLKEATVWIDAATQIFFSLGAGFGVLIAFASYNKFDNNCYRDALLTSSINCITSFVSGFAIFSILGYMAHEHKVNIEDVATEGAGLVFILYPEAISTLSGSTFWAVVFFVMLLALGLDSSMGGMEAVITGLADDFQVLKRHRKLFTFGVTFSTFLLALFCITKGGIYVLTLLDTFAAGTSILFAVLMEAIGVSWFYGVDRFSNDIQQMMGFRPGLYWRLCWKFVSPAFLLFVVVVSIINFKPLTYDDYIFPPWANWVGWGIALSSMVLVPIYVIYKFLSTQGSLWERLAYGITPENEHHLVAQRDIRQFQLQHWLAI
For another assay, the target named is Acetylcholinesterase (Homo sapiens, UniProt P22303). The format is functional.
Chain of Acetylcholinesterase (P22303 whole entry): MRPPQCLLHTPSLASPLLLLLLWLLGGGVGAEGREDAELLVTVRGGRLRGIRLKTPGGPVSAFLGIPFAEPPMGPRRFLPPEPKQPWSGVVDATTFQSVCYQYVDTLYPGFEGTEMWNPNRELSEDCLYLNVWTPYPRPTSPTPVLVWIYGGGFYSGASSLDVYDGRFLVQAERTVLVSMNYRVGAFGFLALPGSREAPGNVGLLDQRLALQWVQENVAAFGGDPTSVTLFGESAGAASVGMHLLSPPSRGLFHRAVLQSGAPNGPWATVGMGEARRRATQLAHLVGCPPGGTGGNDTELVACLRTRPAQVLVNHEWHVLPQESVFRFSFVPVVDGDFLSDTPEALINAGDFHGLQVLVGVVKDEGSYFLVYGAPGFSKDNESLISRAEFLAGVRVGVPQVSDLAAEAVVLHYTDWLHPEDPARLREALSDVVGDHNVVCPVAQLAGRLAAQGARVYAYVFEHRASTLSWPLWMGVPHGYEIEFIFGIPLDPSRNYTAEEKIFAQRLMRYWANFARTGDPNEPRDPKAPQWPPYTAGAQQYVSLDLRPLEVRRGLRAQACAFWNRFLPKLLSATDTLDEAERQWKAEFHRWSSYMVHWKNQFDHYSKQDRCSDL
Assay [13] concerns the target T2, Prostaglandin G/H synthase 1. The format is functional. This is another data set of the same source.
Note: assay procedure not described here.

Chain of Sodium-dependent dopamine transporter (Q01959 whole entry): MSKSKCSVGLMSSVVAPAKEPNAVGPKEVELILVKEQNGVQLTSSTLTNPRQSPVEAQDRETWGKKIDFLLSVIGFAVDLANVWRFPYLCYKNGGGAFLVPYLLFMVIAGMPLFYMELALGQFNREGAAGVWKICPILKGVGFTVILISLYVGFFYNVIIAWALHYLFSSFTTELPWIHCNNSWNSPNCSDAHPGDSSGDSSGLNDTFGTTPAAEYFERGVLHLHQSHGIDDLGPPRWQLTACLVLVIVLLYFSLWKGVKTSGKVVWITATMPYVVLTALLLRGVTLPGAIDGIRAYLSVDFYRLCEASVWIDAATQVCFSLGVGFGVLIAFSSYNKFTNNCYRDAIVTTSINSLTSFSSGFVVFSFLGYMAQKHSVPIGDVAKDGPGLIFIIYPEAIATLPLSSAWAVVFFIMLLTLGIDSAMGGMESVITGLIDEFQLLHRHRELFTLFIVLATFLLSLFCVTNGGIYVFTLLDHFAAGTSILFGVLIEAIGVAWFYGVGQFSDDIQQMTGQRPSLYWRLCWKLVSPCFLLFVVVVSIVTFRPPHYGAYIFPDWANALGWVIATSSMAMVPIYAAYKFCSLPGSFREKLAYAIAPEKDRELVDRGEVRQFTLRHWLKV
Chain of D(1A) dopamine receptor (P21728 whole entry): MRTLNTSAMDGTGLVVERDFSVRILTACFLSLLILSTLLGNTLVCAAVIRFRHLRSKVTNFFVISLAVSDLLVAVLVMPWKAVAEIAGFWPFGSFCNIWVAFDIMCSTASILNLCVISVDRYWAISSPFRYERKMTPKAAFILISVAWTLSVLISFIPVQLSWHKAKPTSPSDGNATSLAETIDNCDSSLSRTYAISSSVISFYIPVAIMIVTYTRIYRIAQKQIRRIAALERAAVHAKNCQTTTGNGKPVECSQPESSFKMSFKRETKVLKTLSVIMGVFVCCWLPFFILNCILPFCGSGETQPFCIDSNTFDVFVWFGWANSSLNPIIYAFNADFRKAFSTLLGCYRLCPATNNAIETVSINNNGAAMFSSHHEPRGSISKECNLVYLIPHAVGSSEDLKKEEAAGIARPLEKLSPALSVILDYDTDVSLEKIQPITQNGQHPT
Chain of 3',5'-cyclic-AMP phosphodiesterase 4A (P27815 whole entry): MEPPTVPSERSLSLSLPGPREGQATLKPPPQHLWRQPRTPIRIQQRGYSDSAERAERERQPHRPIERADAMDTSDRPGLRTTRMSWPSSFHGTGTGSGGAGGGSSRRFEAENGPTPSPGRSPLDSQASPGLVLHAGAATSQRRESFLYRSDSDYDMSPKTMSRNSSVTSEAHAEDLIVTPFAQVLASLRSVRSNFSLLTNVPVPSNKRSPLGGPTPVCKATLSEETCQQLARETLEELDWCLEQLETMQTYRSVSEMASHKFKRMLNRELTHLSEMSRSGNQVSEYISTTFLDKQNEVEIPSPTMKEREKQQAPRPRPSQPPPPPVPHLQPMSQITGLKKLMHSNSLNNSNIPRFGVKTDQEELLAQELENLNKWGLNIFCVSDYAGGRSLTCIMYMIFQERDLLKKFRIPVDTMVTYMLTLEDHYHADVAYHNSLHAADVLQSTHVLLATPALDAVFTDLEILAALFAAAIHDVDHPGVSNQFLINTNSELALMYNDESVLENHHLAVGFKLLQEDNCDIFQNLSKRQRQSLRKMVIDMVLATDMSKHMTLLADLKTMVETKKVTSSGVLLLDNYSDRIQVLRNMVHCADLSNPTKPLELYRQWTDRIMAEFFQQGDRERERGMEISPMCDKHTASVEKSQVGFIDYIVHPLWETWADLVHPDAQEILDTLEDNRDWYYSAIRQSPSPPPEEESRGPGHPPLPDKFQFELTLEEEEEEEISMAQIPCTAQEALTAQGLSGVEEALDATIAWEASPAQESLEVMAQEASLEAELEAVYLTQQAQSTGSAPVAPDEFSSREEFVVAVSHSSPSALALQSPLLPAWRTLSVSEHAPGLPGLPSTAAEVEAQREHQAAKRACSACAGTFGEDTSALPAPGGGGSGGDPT
Chain of Mu-type opioid receptor (P35372 whole entry): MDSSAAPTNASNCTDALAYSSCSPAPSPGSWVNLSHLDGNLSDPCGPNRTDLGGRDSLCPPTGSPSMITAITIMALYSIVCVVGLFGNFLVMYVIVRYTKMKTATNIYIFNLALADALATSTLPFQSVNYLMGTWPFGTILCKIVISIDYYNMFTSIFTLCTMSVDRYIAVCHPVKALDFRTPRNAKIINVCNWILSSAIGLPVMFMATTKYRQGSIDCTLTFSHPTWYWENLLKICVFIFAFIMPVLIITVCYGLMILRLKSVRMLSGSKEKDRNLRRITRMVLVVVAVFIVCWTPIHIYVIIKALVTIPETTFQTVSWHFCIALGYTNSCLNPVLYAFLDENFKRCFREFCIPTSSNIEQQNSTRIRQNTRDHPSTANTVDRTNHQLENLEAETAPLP

The term AC50 denotes the concentration at which the activity in the assay is half-maximal. As to `Cc1ccc([C@@H]2O[C@H](CO)[C@@H](O)[C@H](O)[C@H]2O)cc1Cc1ccc(-c2ccc(F)cc2)s1` [CANAGLIFLOZIN ANHYDROUS], the AC50 is more than 30 µM on Thromboxane A2 receptor [1]; more than 30 µM in assay [2]; 3.54 µM in assay [3]; more than 30 µM in assay [4]; more than 30 µM in assay [5]; more than 30 µM in assay [6]. For the same compound, the AC50 was more than 30 µM on Histamine H3 receptor; more than 30 µM on Prothrombin; 38 µM on Bile salt export pump; more than 30 µM at D(3) dopamine receptor; more than 30 µM on Mu-type opioid receptor; more than 30 µM in [7]. Further, the AC50 (on D(1A) dopamine receptor; in assay [8]; in [9]; in assay [10]; at Thromboxane A2 receptor [11]; in assay [12]) was more than 30 µM in each case. In addition, the AC50 (on Acetylcholinesterase; in [13]) was more than 30 µM each time.
Regarding `O=C(O)CCCc1ccc(N(CCCl)CCCl)cc1` [CHLORAMBUCIL], the half-maximal activity concentration (AC50) (on Thromboxane A2 receptor [1]; in [2]; in assay [3]; in assay [4]; in assay [5]; in [6]) was more than 30 µM throughout. For the same compound, the half-maximal activity concentration (AC50) on Histamine H3 receptor was more than 30 µM; on Prothrombin, more than 30 µM; on Bile salt export pump it was 270 µM; on D(3) dopamine receptor, more than 30 µM; at Mu-type opioid receptor it was more than 30 µM; in assay [7], more than 30 µM. In addition, the half-maximal activity concentration (AC50) (at D(1A) dopamine receptor; in assay [8]; in [9]; in assay [10]; at Thromboxane A2 receptor [11]; in assay [12]) was more than 30 µM each time. Moreover, the AC50 (at Acetylcholinesterase; in assay [13]) was more than 30 µM in each case.
For the compound `Cn1c(=O)c2c(ncn2CC(O)CO)n(C)c1=O` (stereo not given) [DYPHYLLINE], the AC50 (at Thromboxane A2 receptor [1]; in [2]; in [3]; in assay [4]; in assay [5]; in assay [6]) was more than 30 µM each time. Also, the AC50 on Histamine H3 receptor is more than 30 µM; on Prothrombin, more than 30 µM; at Bile salt export pump, more than 300 µM; at D(3) dopamine receptor, more than 30 µM; at Mu-type opioid receptor, more than 30 µM; in assay [7], more than 30 µM. In addition, the AC50 (on D(1A) dopamine receptor; in assay [8]; in assay [9]; in assay [10]; at Thromboxane A2 receptor [11]; in assay [12]) was more than 30 µM each time. Also, the concentration at half-maximal activity (AC50) (on Acetylcholinesterase; in [13]) was more than 30 µM each time.
Regarding `C#Cc1cccc(Nc2ncnc3cc(OCCOC)c(OCCOC)cc23)c1` [ERLOTINIB], the AC50 on Thromboxane A2 receptor [1] is more than 30 µM; in [2], more than 30 µM; in [3], more than 30 µM; in assay [4], 0.0388 µM; in [5] it was 13.2 µM; in [6], more than 30 µM. In addition, the AC50 at Histamine H3 receptor is more than 30 µM; at Prothrombin, more than 30 µM; at Bile salt export pump, 6.1 µM; on D(3) dopamine receptor it was more than 30 µM; at Mu-type opioid receptor it was 3.82 µM; in assay [7], more than 30 µM. Besides, the AC50 is more than 10 µM at D(1A) dopamine receptor; more than 30 µM in [8]; more than 30 µM in assay [9]; more than 30 µM in assay [10]; more than 30 µM on Thromboxane A2 receptor [11]; more than 30 µM in assay [12]. Besides, the AC50 (on Acetylcholinesterase; in [13]) was more than 30 µM each time.
Take `CCC(=O)O[C@@H](O[P@](=O)(CCCCc1ccccc1)CC(=O)N1C[C@H](C2CCCCC2)C[C@H]1C(=O)O)C(C)C` [FOSINOPRIL]: the AC50 (on Thromboxane A2 receptor [1]; in assay [2]; in assay [3]; in assay [4]; in assay [5]; in assay [6]) was more than 30 µM throughout. The AC50 on Histamine H3 receptor was more than 30 µM; at Prothrombin, more than 30 µM; on Bile salt export pump it was 11 µM; on D(3) dopamine receptor, more than 30 µM; at Mu-type opioid receptor it was more than 30 µM; in assay [7], more than 30 µM. Moreover, the AC50 (on D(1A) dopamine receptor; in assay [8]; in [9]; in assay [10]; on Thromboxane A2 receptor [11]; in assay [12]) was more than 30 µM throughout. The AC50 (on Acetylcholinesterase; in assay [13]) was more than 30 µM each time.
On to `CC(=O)/N=c1/sc(S(N)(=O)=O)nn1C` [METHAZOLAMIDE], for which the concentration at half-maximal activity (AC50) (on Thromboxane A2 receptor [1]; in [2]; in assay [3]; in assay [4]; in [5]; in [6]) was more than 30 µM each time. In addition, the half-maximal activity concentration (AC50) on Histamine H3 receptor is more than 30 µM; at Prothrombin it was more than 30 µM; at Bile salt export pump it was more than 300 µM; on D(3) dopamine receptor, more than 30 µM; at Mu-type opioid receptor, more than 30 µM; in assay [7] it was more than 30 µM. In addition, the concentration at half-maximal activity (AC50) (at D(1A) dopamine receptor; in assay [8]; in [9]; in assay [10]; at Thromboxane A2 receptor [11]; in assay [12]) was more than 30 µM throughout. Moreover, the AC50 (at Acetylcholinesterase; in assay [13]) was more than 30 µM in each case.
For `CCOc1ccc2ccccc2c1C(=O)N[C@@H]1C(=O)N2[C@@H]1SC(C)(C)[C@@H]2C(=O)O` [NAFCILLIN], the AC50 (at Thromboxane A2 receptor [1]; in assay [2]; in assay [3]; in [4]; in assay [5]; in [6]) was more than 30 µM each time. The AC50 is more than 30 µM at Histamine H3 receptor; more than 30 µM on Prothrombin; 40 µM on Bile salt export pump; more than 30 µM at D(3) dopamine receptor; more than 30 µM at Mu-type opioid receptor; more than 30 µM in assay [7]. The AC50 (on D(1A) dopamine receptor; in assay [8]; in assay [9]; in assay [10]; at Thromboxane A2 receptor [11]; in assay [12]) was more than 30 µM each time. In addition, the AC50 (on Acetylcholinesterase; in assay [13]) was more than 30 µM in each case.
